# Columns and labels:
# [1] = system: MDA-MB-468 (HTB-132) triple node negative breast cancer cell lines; assay: Trypan blue cytotoxicity assay, 48 h treatment; format: cell-based, human; details: drugs in DMSO, read-out: IC-50 (mean ± S.D.), concentration required to have 50% cell-growth inhibition, Breast Cancer HTB-132 cell lines
# Protocol: MDA-MB-468 (HTB-132) triple node negative breast cancer cell lineswere obtained from ATCC (USA), cultured inL-15 medium supplemented with 10% Fetal Bovine Serum(FBS), penicillin and streptomycin antibiotics and grownat 37°C inan incubator. The mouse glomerular mesangialcell line was a kind gift from Dr. C. Reilly of Virginia Tech University, USA. These cells were cultured in RPMI-1640 medium supplemented with 10%FBS, penicillin and streptomycin antibiotics and grown at 37°C in a carbon dioxide incubator.
# HTB-132 breast cancer cell lines were grown in six well plates to confluency, the cells were then kept in serum-free medium overnight and then treated with each of drugsPC1-6 (dissolved in DMSO) along with untreated cells and DMSO vehicular control for 48 hours. […] Atrypan blue assay was done to measure cell viability using a standard hemocytometer and light microscope.
# Each experiment was repeated three times and statistical t test was used to analyze the results with P<0.05.
# [2] = system: Balb/c mouse kidney (mouse glomerular mesangial) cell line; assay: Trypan blue cytotoxicity (nephrotoxicity) in mouse kidney cells; format: cell-based; details: 48 hours, trypan blue assay, drugs in DMSO; read-out: IC-50 (mean ± S.D.), concentration required to have 50% cell-growth inhibition, Mouse Mesangial cell lines
# Protocol: Aim To study the efficacy of novel rhenium compounds to treat triple node negative breast cancer. Place and Duration Six (6) novel rhenium pentycarbanato compounds (PC1-6) were synthesized and triple node negative breast cancer cell lines HTB-132 and Balb/c mouse kidney cell lines were treated with each of them for 48 hours. The results were analyzed by a common trypan blue cell death assay system and statistically analyzed. Place and Duration The compounds were synthesized, analyzed and evaluated at the Department of Chemistryof Morgan State University, Baltimore, Maryland and the Pharmaceutical Sciences Department of Elizabeth City State University campus of the University of North Carolina system. Methodology The novel rhenium compounds were synthesized from one-pot reactions of Re2(CO)10 with the corresponding α-diimine ligands in 1-pentanol.The compounds were characterized spectroscopically. The cell lines were cultured by standard cell culture procedure and treated with each of the six compounds in DMSO for 48 hours with a negative control and a DMSO vehicular control along with a cisplatin positive control.The cytotoxicity was evaluated by standard trypan blue assay and the results were statistically analyzed. […] Conclusion The novel rhenium compounds PC 1-6 can potentially find applications in the treatment of highly malignant triple node negative breast cancer. […]
substance,measurement,setting,value
cis-[Pt (NH3)2Cl2] [Cisplatin],IC50,[1],5 ± 2.5 µM
same,IC50,[2],1 ± 2.5 µM

# — paper PMC4235525, “Anticancer Properties of Novel Rhenium Pentylcarbanato Compounds against MDA-MB-468(HTB-132) Triple Node Negative Human Breast Cancer Cell Lines” (British journal of pharmaceutical research, 2015)
